Data taken from US20080152717A1 (ISP INVESTMENTS, INC., priority 2006, published 2008).

Test: Relative bioavailability in fasted male Sprague Dawley rats, oral solid dose 100 mg/kg (Example 2)
Type: in vivo
Settings: male Sprague Dawley rat, oral solid dose 100 mg/kg
Protocol: The relative bioavailability of the PVP based composition of Example 1 was compared to the crystalline form in male Sprague Dawley rat in a parallel study design. An oral, solid dose of 100 mg/kg was administered to the rats in the fasted state.

AUC0-24h (area under the drug plasma concentration vs. time profile): 40000 ng·h/mL
SMILES: CCCCC(=O)N(Cc1ccc(-c2ccccc2-c2nnn[nH]2)cc1)[C@H](C(=O)O)C(C)C [Valsartan, N-(1-oxopentyl)-N-[[2′-(1H-tetrazol-5-yl) [biphenyl]-4-yl]methyl]-L-valine]
